Data published in article PMC9780203, “Synthesis, molecular docking, and in-vitro studies of pyrimidine-2-thione derivatives as antineoplastic agents via potential RAS/PI3K/Akt/JNK inhibition in breast carcinoma cells” (Scientific Reports, 2022).
“Also recorded” adds a separate entry of the source.

Experiments:
[1] = tested on: MCF-7 breast cancer cells; experiment: MTT cell viability, MCF-7; type: cell-based; details: Homo sapiens, MCF7, 48 h, mean ± SE
Description: (§1) 3-(4,5-dimethylthiazol-2-yl)-2,5-diphenyltetrazolium bromide (MTT) assay was used to measure cell viability according to a prior study. The cells were grown in 96-well plates at a density of 1 × 10^4 cells/well, treated for 48 h with varied 5a (0–200 µM) or the reference drug DOX (0–100 µM) dosages, and then exposed to analysis. The culture medium was taken out after 48 h of incubation, and the cells were given two gentle washes with 1× ice-cold phosphate-buffered saline (PBS). The MTT (10×) has been diluted to a 1× solution in the culture medium (1 volume 10× MTT in 9 volumes medium) and 200 μl was added to each well. The microplate has been kept in a cell culture incubator at 37 °C for 4 h. Afterthat, 180 μl of the MTT solution was taken out and 100 μl of DMSO was put to each well. The microplate was incubated for 15 min with shaking at room temperature. The absorbance of each well was ultimately measured at 630 nm using a Model 680 microplate reader (Bio-Rad, CA, USA)[33].

[2] = tested on: normal human amniotic WISH cells; experiment: MTT cell viability, normal WISH cells; type: cell-based; details: 48 h, mean ± SE, read-out: IC50, normal cell line (WISH)
Description: as §1

p21 = experiment: RT-PCR analysis of p21 gene expression in MCF-7; type: cell-based, human; details: MCF-7, IC50 dose, 48 h, vs untreated cells
Description: (§2) The total RNA was isolated from the MCF-7 cells using Trizol (Cat# R2072, ZYMO […] CORP. USA) according to the manufacturer’s instructions. Its quantity and quality were assessed using a Beckman dual spectrophotometer. The cDNA was performed using a miScript Reverse Transcription Kit (QIAGEN) Kit (218061) and a miScript SYBR Green PCR Kit was used for mRNA detection with quantification (218073). Reverse transcription was running on a StepOne system (Applied Biosystems, Foster City, CA, USA) in a total volume of 10 μL containing 5 μL of the miScript RT enzyme and […]. Real-time PCR for mRNA was performed on the same system in a total volume of 20 μL containing 10 μL of a 2× QuantiTect® SYBR Green PCR Master Mix and 10 ng of the cDNA template. The PCR thermal cycling conditions for the mRNA were 2 min at 50 °C, 30 s at 95 °C, 40 cycles of 95 °C for 5 s, and 60 °C for 34 s. The expression of the mRNA target genes was normalized to the expression of human GAPDH quantified using the 2^−ΔΔCt method. Table 1 contains a list of the primers used in the research.

MCF-7 cells [3] = experiment: Cell cycle analysis by flow cytometry (PI); type: cell-based, human; details: MCF-7, IC50 dose, 48 h; untreated control 8.6%
Description: Using flow cytometry, cell cycle analysis was carried out via a documented method of[35] with a few changes. After trypsinization, the MCF-7 cells were centrifuged at 4500 rpm for 5 min, followed by two washings, resuspension in 1× PBS, fixation with ice-cold absolute ethanol, and incubation at 20 °C for 24 h. Following two PBS washes, the cells were then resuspended in (0.05 mg/mL) propidium iodide (PI)[32] solution containing 50 µL (0.2 mg/mL) of RNase A, and 0.1% v/v Triton X-100 in PBS. Then, the cells were incubated at room temperature for 30–60 min in the dark. Finally, the pellet was washed with 1⤫ PBS and resuspended in 300 µL 1× PBS, and subjected to analysis on Accuri C6 flow cytometer (Becton Dickinson, Franklin Lake, BD, USA) equipped with PE X FL2 channels.

PI3K = experiment: RT-PCR analysis of PI3K gene expression in MCF-7; type: cell-based, human; details: MCF-7, IC50 dose, 48 h, vs untreated cells
Description: as §2

[4] = tested on: phospho-RAS-GRF1 (Ser916); experiment: Immunoblotting of p-RAS in MCF-7; type: cell-based, human; details: MCF-7, IC50 dose, 48 h, western blot, vs untreated cells
Description: (§3) Western blot analysis was conducted according to[37]. The ReadyPrepTM protein extraction kit (total protein) provided by Bio-Rad Inc (Cat #163-2086) was used to isolate proteins according to the manufacturer’s instructions. The Bradford protein assay kit (SK3041) from Bio Basic Inc. (Markham Ontario L3R 8T4 Canada) was then used to perform quantitative protein analysis. Afterward, a 20 μg protein concentration of each sample was subjected to 12% sodium dodecyl sulfate–polyacrylamide gel electrophoresis (SDS-PAGE), followed by transfer to polyvinylidene fluoride (PVDF) membranes (BioRad). Polyacrylamide gels were performed using the TGX Stain-Free™ FastCast™ Acrylamide Kit (SDS-PAGE) provided by Bio-Rad Laboratories Inc. (Cat # 161-0181). The SDS-PAGE TGX Stain-Free FastCast was prepared according to the manufacturer's instructions. The membrane was blocked in tris-buffered saline with Tween 20 (TBST) buffer and 3% bovine serum albumin (BSA) for 1 h at room temperature followed by probing with primary antibodies against phospho-RAS-GRF1 (Ser916) (1: 1000, Cell Signaling Technology, #3321), phospho-SAPK/JNK (Thr183/Tyr185) (1:1000, Cell Signaling Technology, #9251), p53 (1:1000, Cell Signaling Technology, #9282) and β-actin (1:3000, Cell Signaling Technology, #8457). […]

[5] = tested on: phospho-SAPK/JNK (Thr183/Tyr185); experiment: Immunoblotting of p-JNK in MCF-7; type: cell-based, human; details: MCF-7, IC50 dose, 48 h, western blot, vs untreated cells
Description: as §3

p53 = experiment: Immunoblotting of p53 in MCF-7; type: cell-based, human; details: MCF-7, IC50 dose, 48 h, immunoblot, vs untreated cells
Description: as §3

[6] = tested on: PANC-1 pancreatic cancer cells; experiment: MTT cell viability, PANC-1; type: cell-based; details: Homo sapiens, 48 h, mean ± SE
Description: as §1

[7] = tested on: Caco-2 colorectal cancer cells; experiment: MTT cell viability, Caco-2; type: cell-based; details: Homo sapiens, 48 h, mean ± SE
Description: as §1

Akt = experiment: RT-PCR analysis of Akt gene expression in MCF-7; type: cell-based, human; details: MCF-7, IC50 dose, 48 h, vs untreated cells
Description: as §2

MCF-7 cells [8] = experiment: Cell morphology by inverted light microscope; type: cell-based, human; details: IC50 dose, 48 h
Description: Using an inverted light microscope (Olympus, USA), the morphological alterations of the treated and untreated cells were evaluated and documented after 48 h of incubation.

[9] = tested on: MDA-MB-231 breast cancer cells; experiment: MTT cell viability, MDA-MB-231; type: cell-based; details: Homo sapiens, 48 h, mean ± SE
Description: as §1

Row | melting point | IC50 [1] | IC50 [6] | IC50 [7] | IC50 [9] | Compound | IC50 [2] | p21 gene expression (p21) | Percentage of cells at sub-G0/G1 (MCF-7 cells [3]) | mRNA transcript level of PI3K (PI3K) | levels of p-RAS proteins [4] | p-JNK protein expression [5] | p53 protein expression (p53) | mRNA transcript level of Akt (Akt) | Morphological features of MCF-7 cells (MCF-7 cells [8])
1 | 258 °C | – | – | – | – | COc1cc(/C=C/C(=O)C2=C(C)NC(=S)NC2c2cccs2)ccc1O (stereo not shown) [2b, [E]-3-(4-hydroxy-3-methoxyphenyl)-1-(6-methyl-4-(thiophen-2-yl)-2-thioxo-1,2,3,4-tetrahydropyrimidin-5-yl)prop-2-en-1-one] | – | – | – | – | – | – | – | – | –
2 | – | 2.26 ± 1.4 µM | – | – | – | COc1cccc2c1C(=O)c1c(O)c3c(c(O)c1C2=O)C[C@@](O)(C(=O)CO)C[C@@H]3O[C@H]1C[C@H](N)[C@H](O)[C@H](C)O1 [DOX, Doxorubicin, reference compound] | 24.5 ± 2.1 µM | – | – | – | – | – | – | – | –
3 | – | 2.62 ± 1.6 µM | 23.6 ± 2.4 µM | 14.8 ± 2.5 µM | 6.78 ± 2.2 µM | COc1cc(C2CC(C3=C(C)NC(=S)NC3c3ccc(N(C)C)cc3)=NN2c2ccccc2)ccc1O (stereo not shown) [compound 5a, 4-(4-(dimethylamino)phenyl)-5-(5-(4-hydroxy-3-methoxyphenyl)-1-phenyl-4,5-dihydro-1H-pyrazol-3-yl)-6-methyl-3,4-dihydropyrimidine-2(1H)-thione] | 180 ± 2.7 µM | significantly upregulated | 48.5% | significantly reduced; also recorded: downregulated | significantly decreased | significant reduction | significant elevation | significantly reduced; also recorded: downregulated | detectable morphological signs of apoptosis
